Measured values as given in patent US20250332268A1, “CONJUGATE AND COMPOSITION AS WELL AS PREPARATION METHOD THEREFOR AND USE THEREOF” (priority 2022, published 2025).
Read-outs that look alike come from different tables or passages of the source. Non-standard residues stand in square brackets, D forms with d. Residues, ends and D or L forms follow the SMILES beside them. *: point of attachment. {Cy5} = Cy5 fluorescent dye; Dolaproine = CO[C@@H]([C@@H]1CCCN1)[C@@H](C)C(=O)O; Dil = CC[C@H](C)[C@H](NC)[C@@H](CC(=O)O)OC; X1 = C[C@@H](N*)[C@@H](O)c1ccccc1; NMeV = CN[C@H](C(=O)O)C(C)C

Key:
[1] = system: U118MG glioma cells subcutaneous tumor; assay: In vivo anti-tumor activity, tumor volume (Experimental Example 3); design: species or system NOD-SCID mice
Description: In this experimental example, the in vivo anti-tumor activity of the resulting conjugate 20 in mice was investigated.
The mice in this experiment were purchased from SPF Co., Ltd, the germline was NOD-SCID, the grade was SPF, male, 6-8 weeks old; U118MG glioma cells were purchased from Jennio.
The above culture medium containing U118MG cells was inoculated on subcutaneous site of the right forelimb of mice, and the injection volume was 100 μL. Each mouse was inoculated with 1×10^7 U118MG glioma cells.
The above resulting conjugate AP2 was formulated into 1.94 mg/mL of solution with PBS. Conjugate 20 was formulated into 0.625 mg/mL, 1.25 mg/mL and 2.06 mg/mL of solution with PBS, respectively (all calculated based on the amount of oligonucleotide). […]
For test group 3d, the above conjugate 20 solution with a concentration of 0.625 mg/mL was administered by tail intravenous injection with a single administration volume of 10 μL/g, a single administration dosage of […] (calculated based on the mass of oligonucleotide), wherein the dosage of MMAE contained was equivalent to 0.3 mg/kg. […]
Long diameter and short diameter of the tumors were measured by in vitro measurement method. The tumor volume was calculated according to the formula ½(long diameter×short diameter^2). […]

[2] = system: U118MG subcutaneous tumor; assay: In vivo activity of long-interval administration against U118MG subcutaneous tumor model mice (Experimental Example 7); design: species or system NOD-SCID mice; details: MMAE only, 0.1 mg/kg and 0.3 mg/kg subcutaneous on D8, D11, D15, D29, D32, D36
Description: According to the method of experimental example 2, 42 mice inoculated with U118MG subcutaneous tumor were obtained, and the mice were kept after injection.
MMAE was dissolved into solutions with a concentration of 0.03 mg/mL and 0.01 mg/mL with 10% DMSO+90% serum-free DMEM medium (volume ratio); conjugate 21 was dissolved into a solution with a concentration of 0.5 mg/mL and 0.165 mg/mL (calculated according to aptamer); and comparative conjugate 25 was dissolved into solutions with a concentration of 0.5 mg/mL and 0.165 mg/mL (calculated according to aptamer). […] The mice were weighed before administration, and the administration volume was calculated by weight.
For blank control group, each mouse was administered with DMEM medium with a single administration volume of 10 μL/g mouse body weight; For test group 7a, each mouse was administered with MMAE with a concentration of 0.01 mg/ml with a single administration volume of 10 μL/g mouse body weight. It was calculated that a single administration dosage was 0.1 mg/kg.
For test group 7b, each mouse was administered with conjugate 21 with a concentration of 0.165 mg/ml with a single administration volume of 10 μL/g mouse body weight. It was calculated that a single administration dosage was 1.65 mg/kg (the corresponding MMAE dosage was 0.1 mg/kg). […]

[3] = system: U118MG orthotopic tumor (brain glioma); details: mouse, in vivo, iv, 3 mg/kg
Description: (§1) U118MG human glioma cells (purchased from Guangzhou Jennio Biotech Co., Ltd) were cultured in DMEM complete medium (MACGENE company, Cat No. CM15019) supplemented with 10% fetal bovine serum (FBS, RMBIO company) at 37° C. in an incubator containing 5% CO2/95% air.
(§2) The cells were digested with 0.25% pancreatic enzyme and collected. The supernatant was aspirated, and the cells were resuspended in DMEM medium supplemented with 10% FBS to formulate into cell culture medium with a concentration of 4×10^7 cells/mL.
(§3) Experimental animals were 6 NOD-SCID mice, male, 12 weeks old (purchased from SPF (Beijing) Biotechnology Co., LTD.). The above cell culture medium was inoculated into NOD-SCID mice. […]
(§4) The administration dosage of all animals was calculated based on their body weights, the administration volume was all 10 μL/g, the administration dosage was 3 mg/kg per animal (calculated based on the amount of aptamer), 2 mice were administrated in each group and designated as test group 4a and control group 4b, respectively. […]
(§5) 24 h after administration, one mouse in each group was respectively killed and brain tissue was taken, and the remaining mice were killed at 48 h after administration and brain tissues were taken. The brain tissues of mice were taken for fluorescence imaging in IVIS Lumina Series III.

[4] = system: U118MG orthotopic tumor (brain glioma); assay: In vivo distribution in U118MG cell orthotopic tumor model mice, brain fluorescence imaging (Experimental Example 4); details: 24 h and 48 h after administration; 3 mg/kg tail intravenous injection
Description: as §1, §2, §3, §4, §5

[5] = system: A549 subcutaneous tumor (human lung adenocarcinoma cells); assay: In vivo activity against A549 subcutaneous tumor model mice (Experimental Example 9); details: administered D8, D12, D15, D19 (MMAE equivalent 0.3 mg/kg) and D46, D50, D54 (0.6 mg/kg); versus 9b (MMAE) and 9e (comparative conjugate 24)
Description: According to the method of experimental example 2, 30 mice inoculated with A549 subcutaneous tumors were obtained, and the mice were kept after injection.
Conjugate 20 and conjugate 21 were dissolved into conjugate solutions with a concentration of 1 mg/mL (calculated according to aptamer) with serum-free DMEM medium. Comparative conjugate 24 were dissolved into a conjugate solution with a concentration of 0.8 mg/mL (calculated according to aptamer). MMAE was dissolved into a solution with a concentration of 0.06 mg/mL with 10% DMSO+90% serum-free DMEM medium (volume ratio).
7 days after the inoculation of A549 human lung cancer cells, all mice were grouped, with 6 mice in each group, and each mouse was administrated. The day of administration was designated as D8. The mice were weighed before administration, and the administration volume was calculated by the mouse body weight. […]
For blank control group 9a, each mouse was administered with DMEM with a single administration volume of 5 μL/g mouse body weight; For control group 9b, each mouse was administered with MMAE with a single administration volume of 5 μL/g mouse body weight. It was calculated that a single administration dosage was 0.3 mg/kg; […]
Tumor volumes were measured on D1, D9, D16, D19, D22, D26, D30, D36, D40, D43, D47, D50, D54, and D57. The blank control group was measured on D50, and then the experiment was terminated. […]

`CC[C@H](C)[C@@H]([C@@H](CC(=O)N1CCC[C@H]1[C@H](OC)[C@@H](C)C(=O)N[C@H](C)[C@@H](O)c1ccccc1)OC)N(C)C(=O)[C@@H](NC(=O)[C@@H](NC)C(C)C)C(C)C` [MMAE, Monomethyl auristatin E, reference compound] (H-[NMeV]V[Dil][Dolaproine]-X1) was tested, and the “increase rate of tumor volume” value ([1]; control group 3c, 0.3 mg/kg tail intravenous injection on D8, D12, D16, D20) was “increase rate of tumor volume was decreased” and the “increase rates of tumor volume” value [2] was “slightly decreased”.
For “CY5-CmUmGmGmAmGmUmUmCmAmGmAmCmGmUmGmUmUmGmCmUmCmUmUmCmCmGmAmUmCmUmCm (DNA CUGGAGUUCAGACGUGUUGCUCUUCCGAUCUC; all 2'-O-methyl, 5' {Cy5}, backbone not given here) [AP2]”, the “tumor volume over time” value ([1]; control group 3b, 15.5 mg/kg tail intravenous injection on D8, D12, D16, D20) was “increased rapidly” and the “fluorescence signal in brain tissue” value [3] was “strong fluorescence signals at the inoculation tumor location”.
In the case of “CY5-UfCfUfAUfGGCfUfGCfCfGAUfCfUfGGUfCfUfCfCfAUfGUfACfGUf (UCUAUGGCUGCCGAUCUGGUCUCCAUGUACGU; 2'-fluoro at CU, RNA at AG, 5' {Cy5}, backbone not given here) [Comparative AP19]”, the “fluorescence signal in brain tissue” value [4] is reported as “no fluorescence signal at all in the brain”.
With “MMAE-CmUmGmGmAmGmUmUmCmAmGmAmCmGmUmGmUmUmGmCmUmCmUmUmCmCmGmAmUmCmUmCm (DNA CUGGAGUUCAGACGUGUUGCUCUUCCGAUCUC; all 2'-O-methyl, backbone not given here; MMAE drug conjugated at 5' end via linker, further chemistry not fully specified) [Conjugate 20, dye group of AP2 replaced with MMAE; linking group 2-(phosphate ester group-(CH2)6—S—)-MC-Val-Cit-PAB]” the “tumor volumes at each time period” value [5] was “smaller than those of the control groups 9b and 9e”.
“MMAE-CmUmGmGmAmGmUmUmCmAmGmAmCmGmUmUmGmUmGmCmUmCmUmUm (CUGGAGUUCAGACGUUGUGCUCUU; all 2'-O-methyl, backbone not given here; MMAE drug conjugated at 5' end via linker, further chemistry not fully specified) [Conjugate 21]” was tested, and the “tumor volumes at each time period” value [5] was “smaller than those of the control groups 9b and 9e”.
